# Test results as given in paper PMC10740499, “Benzodioxane–Benzamides as FtsZ Inhibitors: Effects of Linker’s Functionalization on Gram-Positive Antimicrobial Activity” (Antibiotics, 2023).
# “And” between values parts separate entries of the source, which are not always exact repeats. Identical values can stand only once. Like-named read-outs stand apart in the source and are kept apart here.
# Legend:
# [1] = tested on: methicillin-sensitive S. aureus (MSSA, ATCC29213); assay: MIC, broth dilution, MSSA ATCC 29213; format: cell-based, Staphylococcus aureus
# Description: (§1) As described in our previous work, we evaluated all the compounds mentioned above on different S. aureus strains. We tested on both methicillin-sensitive S. aureus (MSSA, ATCC29213) and two clinical isolates of S. aureus showing multi-drug resistance (MDRSA). […] We analyzed the MICs and, if the antibacterial activity was promising, we also determined the percentage of cytotoxicity using the MTT assay on human MRC-5 cells and reported it as TD90. The results of antibacterial properties of all of the synthesized derivatives are shown in Table 1, and they are compared with their reference compounds FZ14, FZ88, and FZ100.
# Gram-positive methicillin-sensitive Staphylococcus aureus (MSSA, ATCC 29213) was grown in Luria–Bertani broth (LB), as already described in our papers.
# (§2) The detailed protocol is identical to what was previously reported. Briefly, the antimicrobial testing of compounds followed the Clinical and Laboratory Standards Institute and European Committee for Antimicrobial Susceptibility Testing guidelines. A bacterial suspension equivalent to 0.5 McFarland turbidity standard was diluted in cation-adjusted Mueller Hinton broth to prepare a fresh bacterial culture of 10^5 CFU/mL. Compounds dissolved in DMSO were combined with the bacteria and incubated for 20 h at 35 °C. MIC values were determined visually as the lowest compound dilution with no turbidity. MICs were determined against methicillin-sensitive and methicillin-resistant S. aureus strains (11.7 and 12.1). Every assay was performed in triplicate, and for each series of experiments, both positive (tetracycline) and negative (no compounds) controls were included.
# MDRSA 11.7 = assay: MIC, broth dilution, MDRSA 11.7; format: cell-based, Staphylococcus aureus; details: MDRSA 11.7 clinical isolate
# Description: as §1, §2
# MDRSA 12.1 = assay: MIC, broth dilution, MDRSA 12.1; format: cell-based, Staphylococcus aureus; details: MDRSA 12.1 clinical isolate
# Description: as §1, §2
# [2] = tested on: B. subtilis strain WM5126; assay: MIC from broth microdilution; format: cell-based, Bacillus subtilis
# Description: (§3) We further evaluated the most promising compounds on B. subtilis, a model Gram-positive species used previously in evaluating other benzamides, including by our research group. The B. subtilis strain WM5126 expresses a xylose-inducible GFP-tagged ZapA protein. […] We first tested the effects of the compounds on colony viability on solid medium (Figure 4). […] MIC values from microdilution experiments, shown in the right column in Figure 4, largely mirrored the spot viability data.
# (§4) The B. subtilis strain used was WM5126 (JH642 amyE::Pxyl-gfp-zapA). For spot viability assays on plates, compounds were diluted from DMSO stocks into molten LB agar and mixed well before solidifying. To assess viability, cells were grown until the early log phase, and then 10-fold serial dilutions of the culture in LB were spotted onto LB agar plates containing the indicated final concentration of the compounds. The plates were incubated overnight at 30 °C and photographed. Microdilution assays to obtain MICs were performed essentially as described for E. coli.
# [3] = tested on: B. subtilis strain WM5126; assay: Spot viability assay on solid medium; format: cell-based, Bacillus subtilis; details: for growth on solid medium at 6 µg/mL: 6 µg/mL in LB agar; for concentration able to kill on solid medium: spot dilutions on LB agar; for colony viability on solid medium, in words: more potent compounds, Figure 4A
# Description: as §3, §4
# human MRC-5 cells [4] = assay: MTT cytotoxicity assay; format: cell-based; details: MRC-5, MTT assay
# Description: as §1
# Normal human lung fibroblasts (MRC-5) were grown in Dulbecco’s Modified Eagle’s medium (DMEM) supplemented with 10% heat-inactivated fetal calf serum (FCS), 100 U/mL penicillin, and […] streptomycin.
# Compounds showing promising antibacterial activity were serially diluted in DMEM and tested for cytotoxicity on MRC-5 cells using the MTT assay (Sigma, St Louis, MO, USA), following the same protocol we previously reported.
# [5] = tested on: FtsZ rings in live B. subtilis WM 5126 cells expressing GFP-ZapA; assay: GFP-ZapA fluorescence microscopy of FtsZ assembly; format: cell-based, Bacillus subtilis; details: 0.3 µg/mL (0.8 µM), 90 min
# Protocol: To test if the differential effects of FZ116 and FZ117 enantiomers could be detected as FtsZ assembly changes in B. subtilis cells, we visualized GFP-ZapA patterns after growth in inhibitory concentrations of FZ116 and FZ117 (0.3 µg/mL or 0.8 µM). Cells grown with no added compound grew as typical single bacilli and short chains, with well- defined Z rings clearly visible (Figure 5, left panel, single yellow arrows). […] This conversion of FtsZ rings into a speckle pattern was observed previously, both with FZ100 [14] and with the original benzamide derivatives.
# For fluorescence microscopy, overnight cultures of WM5126 were grown at 33 °C (after 1:200 dilution overnight and addition of 0.1% xylose to induce expression of GFP-ZapA) for ~2 h until reaching an OD600 of ~0.2 and then treated with no drug or with compounds FZ116 or FZ117 diluted in water to a final concentration of 0.3 µg/mL (0.8 µM) from stock solutions of 30 mg/mL in DMSO. After the addition of the compounds, the cultures were grown for 90 min while shaking at 33 °C prior to spotting on a thin layer of 1% agarose in phosphate-buffered saline. Cells were imaged with an Olympus BX100 fitted with a 100 × Plan Apochromat objective (N.A. 1.4) and a GFP filter set (Chroma). Images were acquired with CellSens Dimension version 2 software (Evident Corporation, Tokyo, Japan).
# [6] = tested on: methicillin-resistant S. aureus (MRSA); details: cited from earlier work
# [7] = tested on: methicillin-sensitive Staphylococcus aureus (MSSA); details: cited from earlier work
# human MRC-5 cells [8] = tested on: human MRC-5 cells; set-up: method as in PMID 33920895; details: in words; cited from earlier work
# B. subtilis = tested on: B. subtilis; set-up: method as in PMID 33920895; details: cited from earlier work
# [9] = Staphylococcus aureus, 20 h, MSSA ATCC 29213, 20 h at 35 °C, read-out: MIC
# [10] = Staphylococcus aureus, read-out: MIC vs S. aureus
# [11] = Bacillus subtilis, value in brackets
# [12] = MSSA ATCC 29213, 20 h at 35 °C, read-out: MIC
# [13] = as repeated in Table S1 beside the docking ranges, read-out: MIC vs S. aureus
Structure (SMILES),"MIC [1, 9] [µM]","MIC [1, 10] [µM]",MIC (MDRSA 11.7; Staphylococcus aureus) [µM],MIC (MDRSA 12.1; Staphylococcus aureus) [µM],MIC ([2]; Bacillus subtilis) [µg/mL],"MIC [2, 11] [µM]",TD90 (human MRC-5 cells [4]) [µM],further results
NC(=O)c1c(F)ccc(OC[C@H](O)[C@H]2COc3ccccc3O2)c1F (relative stereo) [FZ112],364,364,364,364,7.5,21,,growth on solid medium at 6 µg/mL [3]: still permitted growth
"CC(COc1ccc(F)c(C(N)=O)c1F)C1COc2ccccc2O1 (stereo not drawn) [FZ97, 3-(2-(1,4-benzodioxan-2-yl)-1-propyloxy)-2,6-difluorobenzamide]",,,,,,,,"MIC [1, 12]: 366.4 µM; MIC [1, 13]: 366.4 µM; MIC (MDRSA 11.7): 366.4 µM; MIC (MDRSA 12.1): 366.4 µM"
"CC(COc1ccc(F)c(C(N)=O)c1F)C1COc2ccccc2O1 (stereo not drawn) [FZ98, 3-(2-(1,4-benzodioxan-2-yl)-1-propyloxy)-2,6-difluorobenzamide]",,,,,15,42,,"MIC [1, 12]: 91.6 µM; MIC [1, 13]: 91.6 µM; MIC (MDRSA 11.7): 91.6 µM; MIC (MDRSA 12.1): 91.6 µM; growth on solid medium at 6 µg/mL [3]: still permitted growth"
"C[C@H](Oc1ccc(F)c(C(N)=O)c1F)[C@H]1COc2ccccc2O1 (relative stereo) [FZ104, 3-[1-(1,4-benzodioxan-2yl)ethyl-1-oxy]-2,6-difluorobenzamide]",23.9,23.9,23.9,23.9,3.75,11,,concentration able to kill on solid medium ([3]; overnight 30 °C): 6 µg/mL; concentration able to kill on solid medium ([3]; value in brackets): ~ 20 µM
NC(=O)c1c(F)ccc(OC[C@@H](O)[C@H]2COc3ccccc3O2)c1F (relative stereo) [FZ113],364,364,364,364,15,42,,growth on solid medium at 6 µg/mL [3]: still permitted growth
NC(=O)c1c(F)ccc(OC[C@@H](O)[C@H]2COc3cc4c(cc3O2)CCCC4)c1F (relative stereo) [FZ117],19.7,19.7,19.7,19.7,0.94,2.7,468.7,"colony viability on solid medium, in words [3]: less effective; FtsZ ring / GFP-ZapA pattern [5]: mixture of FtsZ speckles and Z rings"
"CC(COc1ccc(F)c(C(N)=O)c1F)C1COc2cc3c(cc2O1)CCCC3 (stereo not drawn) [FZ119, Threo 3-(2-(5,6,7,8-Tetrahydro-1,4-naphthodioxan-2-yl)prop-1-yloxy)-2,6-difluorobenzamide]",,,,,,,247.9,"MIC [1, 12]: 9.9 µM; MIC [1, 13]: 9.9 µM; MIC (MDRSA 11.7): 9.9 µM; MIC (MDRSA 12.1): 9.9 µM; MIC (microdilution) [2]: < 0.24 µg/mL; MIC ([2]; value in brackets): < 0.6 µM; colony viability on solid medium, in words [3]: killed B. subtilis at the lowest doses"
"CC(COc1ccc(F)c(C(N)=O)c1F)C1COc2cc3c(cc2O1)CCCC3 (stereo not drawn) [FZ118, Erythro 3-(2-(5,6,7,8-Tetrahydro-1,4-naphthodioxan-2-yl)prop-1-yloxy)-2,6-difluorobenzamide]",9.9,9.9,9.9,9.9,< 0.24,< 0.6,471.0,"colony viability on solid medium, in words [3]: less effective"
NC(=O)c1c(F)ccc(OCc2nc3cc(Cl)cnc3s2)c1F [PC190723],,,,,,,,MIC [6]: 1 µg/mL; MIC [7]: 1 µg/mL
"NC(=O)c1c(F)ccc(OCCC2COc3ccccc3O2)c1F (stereo not drawn) [FZ88, reference compound]",14.9,,14.9,14.9,,,226,
NC(=O)c1c(F)ccc(OCCC2COc3cc4c(cc3O2)CCCC4)c1F (stereo not drawn) [FZ100],0.25,,0.25,0.25,,,2054,MIC [6]: 0.1 μg/mL and 0.25 μM; cytotoxicity towards human MRC-5 cells (human MRC-5 cells [8]): low to no cytotoxicity; MIC (B. subtilis): under 0.1 μg/mL; MIC [7]: 0.1 μg/mL and 0.25 μM
NC(=O)c1c(F)ccc(OCCC2COc3cc4ccccc4cc3O2)c1F (stereo not drawn) [FZ95],,,,,,,,MIC [6]: 0.25 μg/mL and 0.6 μM; cytotoxicity towards human MRC-5 cells (human MRC-5 cells [8]): low to no cytotoxicity; MIC (B. subtilis): under 0.1 μg/mL; MIC [7]: 0.25 μg/mL and 0.6 μM
"CC(Oc1ccc(F)c(C(N)=O)c1F)C1COc2ccccc2O1 (stereo not drawn) [FZ105, 3-[1-(1,4-benzodioxan-2yl)ethyl-1-oxy]-2,6-difluorobenzamide]",191,191,191,191,,,,
"NC(=O)c1c(F)ccc(OCC2COc3ccccc3O2)c1F (stereo not drawn) [FZ14, reference compound]",15.6,,15.6,15.6,,,49.8,
